Reference: patent publication US20180042234A1, “FUNGICIDAL PYRAZOLES” (E I DU PONT DE NEMOURS AND COMPANY, priority 2015, published 2018)
Marks after values point to notes of the source that are not given here.

What was measured:
Type in all cases: in vivo
[1] = test system: Puccinia recondita f. sp. tritici; assay: Test A: wheat leaf rust, preventive spray on wheat seedlings, visual disease rating
Text: (§1) General protocol for preparing test suspensions for Tests A-E: the test compounds were first dissolved in acetone in an amount equal to 3% of the final volume and then suspended at the desired concentration (in ppm) in acetone and purified water (50/50 mix by volume) containing 250 ppm of the surfactant Trem® 014 (polyhydric alcohol esters). The resulting test suspensions were then used in Tests A-E. Spraying a 200 ppm test suspension to the point of run-off on the test plants was the equivalent of a rate of 800 g/ha.
The test suspension was sprayed to the point of run-off on wheat seedlings. The following day the seedlings were inoculated with a spore suspension of Puccinia recondita f. sp. tritici (the causal agent of wheat leaf rust) and incubated in a saturated atmosphere at 20° C. for 24 h, and then moved to a growth chamber at 20° C. for 7 days, after which time visual disease ratings were made.
(§2) Results for Tests A-E are given in Table A. In the Table, a rating of 100 indicates 100% disease control and a rating of 0 indicates no disease control (relative to the controls). A dash (-) indicates no test results. All results are for 200 ppm except where followed by an asterisk “*” which indicates a 250 ppm test suspension was used or a double asterisk “**” which indicates a 50 ppm test suspension was used.

[2] = test system: Septoria tritici; assay: Test B: wheat leaf blotch, preventive spray on wheat seedlings, visual disease rating
Text: as §1
The test suspension was sprayed to the point of run-off on wheat seedlings. The following day the seedlings were inoculated with a spore suspension of Septoria tritici (the causal agent of wheat leaf blotch) and incubated in a saturated atmosphere at 24° C. for 48 h, and then moved to a growth chamber at 20° C. for 19 days, after which time visual disease ratings were made.
as §2

[3] = test system: Botrytis cinerea; assay: Test C: tomato Botrytis, preventive spray on tomato seedlings, visual disease rating
Text: as §1
The test suspension was sprayed to the point of run-off on tomato seedlings. The following day the seedlings were inoculated with a spore suspension of Botrytis cinerea (the causal agent of tomato Botrytis) and incubated in a saturated atmosphere at 20° C. for 48 h, and then moved to a growth chamber at 24° C. for 3 days, after which time visual disease ratings were made.
as §2

[4] = test system: Blumeria graminis f sp. tritici; assay: Test D: wheat powdery mildew, preventive spray on wheat seedlings, visual disease rating
Text: as §1
The test suspension was sprayed to the point of run-off on wheat seedlings. The following day the seedlings were inoculated with a spore dust of Blumeria graminis f sp. tritici, (also known as Erysiphe graminis f sp. tritici, the causal agent of wheat powdery mildew) and incubated in a growth chamber at 20° C. for 8 days, after which time visual disease ratings were made.
as §2

[5] = test system: Septoria nodorum; assay: Test E: Septoria glume blotch, preventive spray on wheat seedlings, visual disease rating
Text: as §1
The test suspension was sprayed to the point of run-off on wheat seedlings. The following day the seedlings were inoculated with a spore suspension of Septoria nodorum (the causal agent of Septoria glume blotch) and incubated in a saturated atmosphere at 20° C. for 48 h, and then moved to a growth chamber at 20° C. for 9 days, after which time visual disease ratings were made.
as §2

[6] = 200 ppm test suspension, 100 = 100% disease control, 0 = no control

SMILES: Cc1nn(C)c(Nc2c(F)cc(Cl)cc2F)c1C1CCCCC1 [Compound 46, N-(4-chloro-2,6-difluorophenyl)-4-cyclohexyl-1,3-dimethyl-1H-pyrazol-5-amine]
- Test A disease control rating [1, 6]: 92%
- Test B disease control rating ([2]; 200 ppm test suspension): 99%
- Test C disease control rating ([3]; 200 ppm test suspension): 95%
- Test D disease control rating ([4]; 200 ppm test suspension): 98%
- Test E disease control rating ([5]; 200 ppm test suspension): 0%

SMILES: CCCCCCCCc1c(C)nn(C)c1Nc1ccc(F)cc1 [Compound 1]
- Test A disease control rating [1, 6]: 41%
- Test B disease control rating ([2]; 200 ppm test suspension): 0%
- Test C disease control rating ([3]; 200 ppm test suspension): 0%
- Test D disease control rating ([4]; 200 ppm test suspension): 63%
- Test E disease control rating ([5]; 200 ppm test suspension): 0%

SMILES: Cc1nn(C)c(Nc2c(F)cc(Cl)cc2F)c1C1=CCCCC1 [Compound 6, N-(4-chloro-2,6-difluorophenyl)-4-(1-cyclohexen-1-yl)-1,3-dimethyl-1H-pyrazol-5-amine]
- Test A disease control rating [1, 6]: 19%
- Test B disease control rating ([2]; 200 ppm test suspension): 84%
- Test C disease control rating ([3]; 200 ppm test suspension): 98%
- Test D disease control rating ([4]; 200 ppm test suspension): 0%
- Test E disease control rating ([5]; 200 ppm test suspension): 0%

SMILES: CCC(=NOC)c1c(C)nn(C)c1Oc1c(F)cccc1F [Compound 49]
- Test A disease control rating [1, 6]: 0%
- Test B disease control rating ([2]; 200 ppm test suspension): 16%
- Test C disease control rating ([3]; 200 ppm test suspension): 39%
- Test D disease control rating ([4]; 200 ppm test suspension): 0%
- Test E disease control rating ([5]; 200 ppm test suspension): 0%

SMILES: CC(=NO)c1c(C)nn(C)c1Nc1ccc(F)cc1Cl [Compound 34]
- Test A disease control rating ([1]; 250 ppm test suspension (*)): 28* %
- Test B disease control rating ([2]; 250 ppm test suspension (*)): 76* %
- Test C disease control rating ([3]; 250 ppm test suspension (*)): 0* %
- Test D disease control rating ([4]; 250 ppm test suspension (*)): 64* %
- Test E disease control rating ([5]; 250 ppm test suspension (*)): 0* %

SMILES: Cc1nn(C)c(Nc2c(F)cc(N)cc2F)c1C1=CCCCC1 [Compound 5]
- Test A disease control rating [1, 6]: 0%
- Test B disease control rating ([2]; 200 ppm test suspension): 1%
- Test C disease control rating ([3]; 200 ppm test suspension): 0%
- Test D disease control rating ([4]; 200 ppm test suspension): 0%
- Test E disease control rating ([5]; 200 ppm test suspension): 0%

SMILES: Cc1nn(C)c(Nc2c(F)cc([N+](=O)[O-])cc2F)c1C1=CCCCC1 [Compound 4]
- Test A disease control rating [1, 6]: 32%
- Test B disease control rating ([2]; 200 ppm test suspension): 93%
- Test C disease control rating ([3]; 200 ppm test suspension): 92%
- Test D disease control rating ([4]; 200 ppm test suspension): 0%
- Test E disease control rating ([5]; 200 ppm test suspension): 0%

SMILES: CCC(O)(CC)c1c(C)nn(C)c1Oc1c(F)cccc1F [Compound 44]
- Test A disease control rating [1, 6]: 0%
- Test B disease control rating ([2]; 200 ppm test suspension): 15%
- Test C disease control rating ([3]; 200 ppm test suspension): 3%
- Test D disease control rating ([4]; 200 ppm test suspension): 43%
- Test E disease control rating ([5]; 200 ppm test suspension): 0%

SMILES: CCC(=NO)c1c(C)nn(C)c1Oc1c(F)cccc1F [Compound 47]
- Test A disease control rating [1, 6]: 0%
- Test B disease control rating ([2]; 200 ppm test suspension): 81%
- Test C disease control rating ([3]; 200 ppm test suspension): 0%
- Test D disease control rating ([4]; 250 ppm test suspension (*)): 89* %
- Test E disease control rating ([5]; 200 ppm test suspension): 0%

SMILES: CCCON=C(CC)c1c(C)nn(C)c1Oc1c(F)cccc1F [Compound 45]
- Test A disease control rating [1, 6]: 0%
- Test B disease control rating ([2]; 200 ppm test suspension): 3%
- Test C disease control rating ([3]; 200 ppm test suspension): 0%
- Test D disease control rating ([4]; 200 ppm test suspension): 0%
- Test E disease control rating ([5]; 200 ppm test suspension): 0%

SMILES: Cc1nn(C)c(Nc2c(F)cc(Cl)cc2F)c1C1=CCCC1 [Compound 43]
- Test A disease control rating [1, 6]: 68%
- Test B disease control rating ([2]; 200 ppm test suspension): 92%
- Test C disease control rating ([3]; 200 ppm test suspension): 0%
- Test D disease control rating ([4]; 200 ppm test suspension): 0%
- Test E disease control rating ([5]; 200 ppm test suspension): 0%

SMILES: CCON=C(CC)c1c(C)nn(C)c1Oc1c(F)cccc1F [Compound 50]
- Test A disease control rating [1, 6]: 0%
- Test B disease control rating ([2]; 200 ppm test suspension): 40%
- Test C disease control rating ([3]; 200 ppm test suspension): 3%
- Test D disease control rating ([4]; 200 ppm test suspension): 0%
- Test E disease control rating ([5]; 200 ppm test suspension): 0%

SMILES: CC=C(CC)c1c(C)nn(C)c1Oc1c(F)cccc1F [Compound 51]
- Test A disease control rating [1, 6]: 0%
- Test B disease control rating ([2]; 200 ppm test suspension): 0%
- Test C disease control rating ([3]; 200 ppm test suspension): 15%
- Test D disease control rating ([4]; 200 ppm test suspension): 0%
- Test E disease control rating ([5]; 200 ppm test suspension): 0%

SMILES: CON=C(C)c1c(C)nn(C)c1Nc1ccc(F)cc1Cl [Compound 30]
- Test A disease control rating ([1]; 250 ppm test suspension (*)): 80* %
- Test B disease control rating ([2]; 250 ppm test suspension (*)): 14* %
- Test C disease control rating ([3]; 250 ppm test suspension (*)): 0* %
- Test D disease control rating ([4]; 250 ppm test suspension (*)): 0* %

SMILES: C=Cc1c(C)nn(C)c1Oc1ccc(F)cc1Cl [Compound 35]
- Test A disease control rating ([1]; 250 ppm test suspension (*)): 8* %
- Test B disease control rating ([2]; 250 ppm test suspension (*)): 0* %
- Test C disease control rating ([3]; 250 ppm test suspension (*)): 0* %
- Test D disease control rating ([4]; 250 ppm test suspension (*)): 26* %

SMILES: Cn1nc(Br)c(C2OCCCO2)c1C(O)c1ccc(F)cc1Br (stereo not drawn) [Compound 9]
- Test A disease control rating ([1]; 250 ppm test suspension (*)): 0* %
- Test B disease control rating ([2]; 250 ppm test suspension (*)): 0* %
- Test C disease control rating ([3]; 250 ppm test suspension (*)): 0* %
- Test D disease control rating ([4]; 250 ppm test suspension (*)): 64* %

SMILES: C=C(C)c1c(C)nn(C)c1Oc1ccc(F)cc1Cl [Compound 39]
- Test A disease control rating ([1]; 250 ppm test suspension (*)): 15* %
- Test B disease control rating ([2]; 250 ppm test suspension (*)): 0* %
- Test C disease control rating ([3]; 250 ppm test suspension (*)): 0* %
- Test D disease control rating ([4]; 250 ppm test suspension (*)): 13* %

SMILES: CC1=NOC(c2c(C)nn(C)c2Oc2ccc(F)cc2Cl)C1 (stereo not drawn) [Compound 40]
- Test A disease control rating ([1]; 250 ppm test suspension (*)): 30* %
- Test B disease control rating ([2]; 250 ppm test suspension (*)): 36* %
- Test C disease control rating ([3]; 250 ppm test suspension (*)): 33* %
- Test D disease control rating ([4]; 250 ppm test suspension (*)): 81* %

SMILES: CCON=C(C)c1c(C)nn(C)c1Nc1ccc(F)cc1Cl [Compound 26]
- Test A disease control rating ([1]; 250 ppm test suspension (*)): 0* %
- Test B disease control rating ([2]; 250 ppm test suspension (*)): 33* %
- Test C disease control rating ([3]; 250 ppm test suspension (*)): 0* %
- Test D disease control rating ([4]; 250 ppm test suspension (*)): 0* %

SMILES: Cc1nn(C)c(Oc2ccc(F)cc2Cl)c1C1=NOC(C#N)C1 (stereo not drawn) [Compound 55]
- Test A disease control rating ([1]; 250 ppm test suspension (*)): 0* %
- Test B disease control rating ([2]; 250 ppm test suspension (*)): 0* %
- Test C disease control rating ([3]; 250 ppm test suspension (*)): 0* %
- Test D disease control rating ([4]; 250 ppm test suspension (*)): 73* %

SMILES: Cc1nn(C)c(Nc2ccc(F)cc2Cl)c1C1=CCC(C)(C)CC1 [Compound 60]
- Test A disease control rating ([1]; 250 ppm test suspension (*)): 19* %
- Test B disease control rating ([2]; 250 ppm test suspension (*)): 16* %
- Test C disease control rating ([3]; 250 ppm test suspension (*)): 0* %
- Test D disease control rating ([4]; 250 ppm test suspension (*)): 0* %

SMILES: Cc1nn(C)c(Oc2ccc(F)cc2Cl)c1C(C)O (stereo not drawn) [Compound 41]
- Test A disease control rating ([1]; 250 ppm test suspension (*)): 0* %
- Test B disease control rating ([2]; 250 ppm test suspension (*)): 0* %
- Test C disease control rating ([3]; 250 ppm test suspension (*)): 0* %
- Test D disease control rating ([4]; 250 ppm test suspension (*)): 46* %

SMILES: Cc1nn(C)c(Oc2ccc(F)cc2Cl)c1C1=NOC(C)(C)C1 [Compound 53]
- Test A disease control rating ([1]; 250 ppm test suspension (*)): 0* %
- Test B disease control rating ([2]; 250 ppm test suspension (*)): 2* %
- Test C disease control rating ([3]; 250 ppm test suspension (*)): 0* %
- Test D disease control rating ([4]; 250 ppm test suspension (*)): 90* %
